Test [1] deals with T1, Recombinant human JAK3 catalytic domain (Homo sapiens, UniProt P52333).
T1 construct: Recombinant human JAK3 catalytic domain (amino acids 781-1124; catalog number PV3855); purchased Invitrogen PV3855
The experiment in a line: JAK3 inhibition assay. The format is biochemical. Particulars: Illustrative Compounds of the invention (Table IX). As for the experimental part: Recombinant human JAK3 catalytic domain (amino acids 781-1124; catalog number PV3855) was purchased from Invitrogen. 0.5 ng JAK3 protein was incubated with 2.5 μg polyGT substrate (Sigma catalog number P0275) in kinase reaction buffer (25 mM Tris pH 7.5, 0.5 mM EGTA, 10 mM MgCl2, 2.5 mM DTT, 0.5 mM Na3VO4, 5 mM b-glycerolphosphate, 0.01% Triton X-100, 1 μM non-radioactive ATP, […] ^33P-gamma-ATP (GE Healthcare, catalog number AH9968) final concentrations) with or without 5 μL containing test compound or vehicle (DMSO, 1% final concentration), in a total volume of 25 μL, in a polypropylene 96-well plate (Greiner, V-bottom). After 45 min at 30° C., reactions were stopped by adding 25 μL/well of 150 mM phosphoric acid. All of the terminated kinase reaction was transferred to prewashed (75 mM phosphoric acid) 96 well filter plates (Perkin Elmer catalog number 6005177) using a cell harvester (Perkin Elmer). Plates were washed 6 times with 300 μL per well of a 75 mM phosphoric acid solution and the bottom of the plates was sealed. 40 μL/well of Microscint-20 was added, the top of the plates was sealed and readout was performed using the Topcount (Perkin Elmer). Kinase activity was calculated by subtracting counts per min (cpm) obtained in the presence of a positive control inhibitor (10 μM staurosporine) from cpm obtained in the presence of vehicle. The ability of a test compound to inhibit this activity was determined as:
(§1) [formula] • RFU test compound=RFU determined for sample with test compound present • RFU control=RFU determined for sample with positive control inhibitor • RFU vehicle=RFU determined in the presence of vehicle
Dose dilution series were prepared for the compounds enabling the testing of dose-response effects in the JAK3 assay and the calculation of the IC50 for each compound. Each compound was routinely tested at concentration of 20 μM followed by a 1/5 serial dilution, 10 points in a final concentration of 1% DMSO. When potency of compound series increased, more dilutions were prepared and/or the top concentration was lowered (e.g. 5 μM, 1 μM).

Test [2] concerns the target T2, Recombinant human JAK1 catalytic domain (Homo sapiens, UniProt P23458).
T2 construct: Recombinant human JAK1 (catalytic domain, amino acids 866-1154; catalog number PV4774); purchased Invitrogen PV4774
The experiment in a line: JAK1 inhibition assay (polyGT substrate / Ulight-JAK1 peptide assay). Type of test: biochemical. The settings on record: Illustrative Compounds of the invention (Table V). How it is done:
Recombinant human JAK1 catalytic domain (amino acids 850-1154; catalog number 08-144) was purchased from Carna Biosciences. 10 ng of JAK1 is incubated with 12.5 μg polyGT substrate (Sigma catalog number P0275) in kinase reaction buffer (15 mM Tris-HCl pH 7.5, 1 mM DTT, 0.01% Tween-20, 10 mM MgCl2, 2 μM non-radioactive ATP, 0.25 ρCi ^33P-gamma-ATP (GE Healthcare, catalog number AH9968) final concentrations) with or without 5 μL containing test compound or vehicle (DMSO, 1% final concentration), in a total volume of 25 μL, in a polypropylene 96-well plate (Greiner, V-bottom). After 45 min at 30° C., reactions are stopped by adding of 25 μL/well of 150 mM phosphoric acid. All of the terminated kinase reaction is transferred to prewashed (75 mM phosphoric acid) 96 well filter plates (Perkin Elmer catalog number 6005177) using a cell harvester (Perkin Elmer). Plates are washed 6 times with 300 μL per well of a 75 mM phosphoric acid solution and the bottom of the plates is sealed. 40 μL/well of Microscint-20 is added, the top of the plates is sealed and readout is performed using the Topcount (Perkin Elmer). Kinase activity is calculated by subtracting counts per min (cpm) obtained in the presence of a positive control inhibitor (10 μM staurosporine) from cpm obtained in the presence of vehicle. The ability of a test compound to inhibit this activity is determined as:
as §1
Dose dilution series are prepared for the compounds enabling the testing of dose-response effects in the JAK1 assay and the calculation of the IC50 for each compound. Each compound is routinely tested at concentration of 20 μM followed by a 1/3 serial dilution, 8 points (20 μM-6.67 μM-2.22 μM-740 nM-247 nM-82 nM-27 nM-9 nM) in a final concentration of 1% DMSO. When potency of compound series increased, more dilutions are prepared and/or the top concentration was lowered (e.g. 5 μM, 1 μM).
Recombinant human JAK1 (catalytic domain, amino acids 866-1154; catalog number PV4774) was purchased from Invitrogen. 1 ng of JAK1 was incubated with 20 nM Ulight-JAK1 (tyr1023) peptide (Perkin Elmer catalog number TRF0121) in kinase reaction buffer (25 mM MOPS pH6.8, 0.01% Brij-35, 5 mM MgCl2, 2 mM DTT, 7 μM ATP) with or without 4 μL containing test compound or vehicle (DMSO, 1% final concentration), in a total volume of 20 μL, in a white 384 Opti plate (Perkin Elmer, catalog number 6007290). After 60 min at room temperature, reactions were stopped by adding 20 μL/well of detection mixture (1× detection buffer (Perkin Elmer, catalog number CR97-100C), 0.5 nM Europium-anti-phosphotyrosine (PT66) (Perkin Elmer, catalog number AD0068), 10 mM EDTA). Readout is performed using the Envision with excitation at 320 nm and measuring emission at 615 nm (Perkin Elmer). Kinase activity was calculated by subtracting relative fluorescence units (RFU) obtained in the presence of a positive control inhibitor (10 μM staurosporine) from RFU obtained in the presence of vehicle. The ability of a test compound to inhibit this activity was determined as: Percentage inhibition=((RFU determined for sample with test compound present−RFU determined for sample with positive control inhibitor) divided by (RFU determined in the presence of vehicle−RFU determined for sample with positive control inhibitor))*100.
Dose dilution series were prepared for the compounds enabling the testing of dose-response effects in the JAK1 assay and the calculation of the IC50 for the compound. Each compound is routinely tested at concentration of 20 μM followed by a 1/5 serial dilution, 10 points in a final concentration of 1% DMSO. When potency of compound series increases, more dilutions are prepared and/or the top concentration are lowered (e.g. 5 μM, 1 μM). […]

A value given as a limit tells only on which side of the number the result lay.

T1 sequence (P52333 781-1124): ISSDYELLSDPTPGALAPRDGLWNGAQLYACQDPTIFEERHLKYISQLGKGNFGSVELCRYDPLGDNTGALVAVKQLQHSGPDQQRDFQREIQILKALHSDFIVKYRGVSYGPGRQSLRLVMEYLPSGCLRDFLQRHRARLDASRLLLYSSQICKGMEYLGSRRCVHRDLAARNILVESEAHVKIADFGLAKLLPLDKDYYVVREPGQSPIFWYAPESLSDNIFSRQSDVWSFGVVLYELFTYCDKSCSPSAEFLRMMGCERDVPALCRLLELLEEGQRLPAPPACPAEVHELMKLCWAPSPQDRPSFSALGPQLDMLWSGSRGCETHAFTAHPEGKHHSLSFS
T2 sequence (P23458 866-1154): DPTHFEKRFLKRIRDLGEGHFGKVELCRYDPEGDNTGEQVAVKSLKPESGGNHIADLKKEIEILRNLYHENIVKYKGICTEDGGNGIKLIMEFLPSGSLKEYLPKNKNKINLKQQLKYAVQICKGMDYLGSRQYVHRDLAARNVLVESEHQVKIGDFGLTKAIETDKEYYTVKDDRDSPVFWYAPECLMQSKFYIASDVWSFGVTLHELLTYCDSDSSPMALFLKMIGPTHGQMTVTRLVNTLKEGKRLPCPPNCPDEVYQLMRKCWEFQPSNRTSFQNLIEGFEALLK

As for `CN(c1cc(NC(=O)[C@H]2C[C@H]2F)c2ncn(C)c2c1)c1ccc(S(C)(=O)=O)cc1F` [Cpd 17, (1R,2R)-2-fluoro-N-[6-(2-fluoro-N-methyl-4-methylsulfonyl-anilino)-1-methyl-benzimidazol-4-yl]cyclopropanecarboxamide], the figures for the IC50 in test [1] and in test [2] were greater than 0.5 µM and 0.1 to 0.5 µM, respectively.
For the compound `CCc1cc(S(C)(=O)=O)ncc1N(C)c1cc(NC(=O)C2CC2)c2ncn(C)c2c1` [Cpd 18, N-[6-[(4-ethyl-6-methylsulfonyl-3-pyridyl)-methyl-amino]-1-methyl-benzimidazol-4-yl]cyclopropanecarboxamide], the IC50 (usually the concentration that gives 50% inhibition) in test [1] lay in the range of 0.1 to 0.5 µM; in test [2] it was 0.0001 to 0.05 µM.
As for `Cc1cc(S(C)(=O)=O)cc(F)c1N(C)c1cc(NC(=O)C2CC2)c2ncn(C)c2c1` [Cpd 19, N-[6-(2-fluoro-N,6-dimethyl-4-methylsulfonyl-anilino)-1-methyl-benzimidazol-4-yl]cyclopropanecarboxamide], the IC50 lay in the range of 0.05 to 0.1 µM in test [1] and 0.0001 to 0.05 µM in test [2].
For `Cc1cc(C#N)ncc1Oc1cc(NC(=O)[C@H]2C[C@H]2F)c2ncn(C)c2c1` [Cpd 20, (1R,2R)-N-[6-[(6-cyano-4-methyl-3-pyridyl)oxy]-1-methyl-benzimidazol-4-yl]-2-fluoro-cyclopropanecarboxamide], in that order: greater than 0.5 µM and 0.0001 to 0.05 µM.
For `Cc1cc(C#N)nc(F)c1N(C)c1cc(NC(=O)[C@H]2C[C@H]2F)c2ncn(C)c2c1` [Cpd 21, (1R,2R)-N-[6-[(6-cyano-2-fluoro-4-methyl-3-pyridyl)-methyl-amino]-1-methyl-benzimidazol-4-yl]-2-fluoro-cyclopropanecarboxamide], the figures for the IC50 in test [1] and in test [2] were 0.05 to 0.1 µM and 0.0001 to 0.05 µM, respectively.
For the compound `Cc1cnc(C#N)c(F)c1N(C)c1cc(NC(=O)[C@H]2C[C@H]2F)c2ncn(C)c2c1` [Cpd 22, (1R,2R)-N-[6-[(2-cyano-3-fluoro-5-methyl-4-pyridyl)-methyl-amino]-1-methyl-benzimidazol-4-yl]-2-fluoro-cyclopropanecarboxamide], the figures for the IC50 in test [1] and in test [2] were 0.1 to 0.5 µM and 0.0001 to 0.05 µM, respectively.
`Cc1cc(C#N)ncc1Oc1cc(NC(=O)C2CC2)c2ncn(C)c2c1` [Cpd 23, N-[6-[(6-cyano-4-methyl-3-pyridyl)oxy]-1-methyl-benzimidazol-4-yl]cyclopropanecarboxamide]: the results for the IC50 in test [1] and in test [2] were greater than 0.5 µM and 0.0001 to 0.05 µM, respectively.
For `CCc1cc(C(N)=O)ncc1N(C)c1cc(NC(=O)C2CC2)c2ncn(C)c2c1` [Cpd 24, 5-((4-(cyclopropanecarboxamido)-1-methyl-1H-benzo[d]imidazol-6-yl)(methyl)amino)-4-ethylpicolinamide], the values for the IC50 in test [1] and in test [2] were 0.1 to 0.5 µM and 0.0001 to 0.05 µM, respectively.
In the same order, the values of `CCc1cc(C(N)=O)ncc1N(C)c1cc(NC(=O)[C@H]2C[C@H]2F)c2ncn(C)c2c1` [Cpd 25, 4-ethyl-5-((4-((1R,2R)-2-fluorocyclopropanecarboxamido)-1-methyl-1H-benzo[d]imidazol-6-yl)(methyl)amino)picolinamide] are 0.1 to 0.5 µM and 0.0001 to 0.05 µM.
Consider `Cc1cc(S(C)(=O)=O)ccc1N(C)c1cc(NC(=O)[C@H]2C[C@H]2F)c2ncn(C)c2c1` [Cpd 26, (1R,2R)-N-[6-(N,2-dimethyl-4-methylsulfonyl-anilino)-1-methyl-benzimidazol-4-yl]-2-fluoro-cyclopropanecarboxamide], for which the IC50 lay within 0.1 to 0.5 µM in test [1] and 0.0001 to 0.05 µM in test [2].
For `CCS(=O)(=O)c1ccc(N(C)c2cc(NC(=O)[C@H]3C[C@H]3F)c3ncn(C)c3c2)c(C)c1` [Cpd 27, (1R,2R)-N-[6-(4-ethylsulfonyl-N,2-dimethyl-anilino)-1-methyl-benzimidazol-4-yl]-2-fluoro-cyclopropanecarboxamide], the IC50 lay in the range of 0.1 to 0.5 µM in test [1] and 0.0001 to 0.05 µM in test [2].
Consider `Cc1cc(C#N)ncc1Oc1cc(N)c2ncn(C)c2c1` [Cpd 28, 5-(7-amino-3-methyl-benzimidazol-5-yl)oxy-4-methyl-pyridine-2-carbonitrile], for which the IC50 in test [1] was greater than 0.5 µM; in test [2], 0.05 to 0.1 µM.
`CCc1cc(S(C)(=O)=O)ncc1Oc1cc(NC(=O)C2CC2)c2ncn(C)c2c1` [Cpd 29, N-[6-[(4-ethyl-6-methylsulfonyl-3-pyridyl)oxy]-1-methyl-benzimidazol-4-yl]cyclopropanecarboxamide]: the IC50 in test [1] is greater than 0.5 µM; in test [2], 0.0001 to 0.05 µM.
Consider `Cc1cc(C(N)=O)ncc1Oc1cc(NC(=O)[C@H]2C[C@H]2F)c2ncn(C)c2c1` [Cpd 32, 5-[7-[[(1R,2R)-2-fluorocyclopropanecarbonyl]amino]-3-methyl-benzimidazol-5-yl]oxy-4-methyl-pyridine-2-carboxamide], for which the IC50 in test [1] is greater than 0.5 µM; in test [2], 0.05 to 0.1 µM.
For the compound `CNc1cc(Oc2cnc(C#N)cc2C)cc2c1ncn2C` [Cpd 34, 4-methyl-5-[3-methyl-7-(methylamino)benzimidazol-5-yl]oxy-pyridine-2-carbonitrile], the IC50 in test [1] is greater than 0.5 µM; in test [2], 0.1 to 0.5 µM.
As to `Cc1cc(C#N)ncc1Oc1cc(N(C)C)c2ncn(C)c2c1` [Cpd 35, 5-[7-(dimethylamino)-3-methyl-benzimidazol-5-yl]oxy-4-methyl-pyridine-2-carbonitrile], the IC50 in test [1] and in test [2] was greater than 0.5 µM throughout.
Take `Cc1cc(C#N)ncc1Oc1cc(NC(=O)N2CC(O)C2)c2ncn(C)c2c1` [Cpd 36, N-[6-[(6-cyano-4-methyl-3-pyridyl)oxy]-1-methyl-benzimidazol-4-yl]-3-hydroxy-azetidine-1-carboxamide]: the IC50 in test [1] and in test [2] was greater than 0.5 µM each time.
For `Cc1cc(C#N)ncc1Oc1cc(NC(=O)N2CCOCC2)c2ncn(C)c2c1` [Cpd 37, N-[6-[(6-cyano-4-methyl-3-pyridyl)oxy]-1-methyl-benzimidazol-4-yl]morpholine-4-carboxamide], the IC50 in test [1] and in test [2] was greater than 0.5 µM each time.

The record behind these values is US10179771B2 (GALAPAGOS NV, priority 2014, dated 2019).
